Where a SMILES comes first, the peptide text is derived from it.
Assays:
PDGF-R = conditions: in the μM range; cited from earlier work
α-type PDGF-R = α-type PDGF-R (Homo sapiens, UniProt P16234); conditions: high concentrations; cited from earlier work
PDGF β receptor = PDGF β receptor (Homo sapiens, UniProt P09619); conditions: cited from earlier work
NIH3T3-PDGF-ββ cells = experiment: Growth assay with NIH3T3-PDGF-ββ cells, cell number by PicoGreen DNA; type: cell-based; conditions: for inhibition compared to the base medium (BITS): Example 4 (Table 2); for % of control cell growth: 5 days, BITS medium
Experimental: NIH 3T3 cells transfected with PDGF-ββ (a stable cell line) were obtained from Mount Sinai School of Medicine. These cells overexpress PDGF-ββ and are activated via the PDGF-R in an autocrine fashion. Cells were grown at 37° C. in Dulbecco's Modified Eagles Medium (high glucose) (DMEM) with 10% heat-inactivated fetal calf serum (FCS) with 100 units or μg/ml penicillin/streptomycin with 750 μg/ml G418 sulfate (Geneticin) selection. Cells were incubated in an atmosphere of 5% CO2, and cultures were fed twice weekly. For subcultivation, cells were allowed to attain confluence and washed twice with PBS or Hank's balanced salt solution (minus Ca^++ and Mg^++) before addition of a trypsin/EDTA solution to dislodge the cells. Cells were split anywhere from ¼ to 1/12 into a sterile T-75 Flask depending on the time desired until confluence.
To identify peptides that inhibit cell growth in culture, candidate peptides were screened in a growth assay with NIH3T3-PDGF-ββ cells. Cells were expanded in DMEM containing G418 as described above. […] Growth medium was removed and the peptide solution added (250 μl/well). Cells were incubated for 5 days without feeding prior to testing. After this time, growth of cells treated with each peptide was compared to growth in control medium (no peptide added).
Cell number was assessed by measurement of total cellular double-stranded DNA using the PicoGreen Assay Kit (Molecular Probes, Eugene, Oreg., USA, lot #6405-1). For PicoGreen analysis, cell lysates (100 μl ) were added to 100 µl of the dye solution prepared by diluting the PicoGreen dye (1:200 in 1× TE according to the manufacturer's instructions). Plates were read after five minutes in a fluorimeter (irradiated at an excitation wavelength of 485 nm). Fluorescence emission was measured at 530 nm using a CytoFluor Series 4000 (PerSeptive Biosystems, Framingham, Mass.). For correlating DNA level to cell number, a standard curve was established for the NIH3T3-PDGF-ββ cells. For analysis, DNA absorbance/emission was compared to the absorbance/emission shown by a standard curve of DNA.

PDGF β receptor, sequence (P09619 33-1106): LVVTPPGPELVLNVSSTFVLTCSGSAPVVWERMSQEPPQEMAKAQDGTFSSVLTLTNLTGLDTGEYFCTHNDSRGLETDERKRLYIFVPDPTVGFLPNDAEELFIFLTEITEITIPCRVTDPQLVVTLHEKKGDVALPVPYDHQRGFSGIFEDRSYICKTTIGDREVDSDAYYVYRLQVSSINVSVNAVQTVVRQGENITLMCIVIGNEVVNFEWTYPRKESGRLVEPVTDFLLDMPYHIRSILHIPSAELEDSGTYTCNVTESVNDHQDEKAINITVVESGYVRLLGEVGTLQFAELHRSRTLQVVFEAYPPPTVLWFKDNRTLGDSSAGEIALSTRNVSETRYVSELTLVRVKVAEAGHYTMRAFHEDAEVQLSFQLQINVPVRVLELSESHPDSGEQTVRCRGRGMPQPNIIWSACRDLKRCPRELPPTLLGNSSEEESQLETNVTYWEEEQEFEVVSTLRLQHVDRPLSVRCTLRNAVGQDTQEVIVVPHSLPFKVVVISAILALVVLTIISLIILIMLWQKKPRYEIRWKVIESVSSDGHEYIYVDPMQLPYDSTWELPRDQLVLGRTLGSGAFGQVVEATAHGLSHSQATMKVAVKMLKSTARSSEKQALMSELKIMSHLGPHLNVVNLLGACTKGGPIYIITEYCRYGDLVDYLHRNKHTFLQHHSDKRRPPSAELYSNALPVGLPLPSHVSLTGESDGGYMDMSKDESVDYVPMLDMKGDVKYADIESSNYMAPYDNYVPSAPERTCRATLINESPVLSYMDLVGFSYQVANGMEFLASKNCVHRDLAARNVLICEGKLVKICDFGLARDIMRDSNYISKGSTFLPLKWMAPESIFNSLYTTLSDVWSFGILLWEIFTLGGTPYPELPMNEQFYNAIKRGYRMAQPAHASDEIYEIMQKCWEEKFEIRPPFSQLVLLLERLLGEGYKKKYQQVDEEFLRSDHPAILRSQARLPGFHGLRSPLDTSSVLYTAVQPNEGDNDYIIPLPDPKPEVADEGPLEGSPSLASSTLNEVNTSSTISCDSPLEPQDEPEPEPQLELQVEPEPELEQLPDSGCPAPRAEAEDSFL
α-type PDGF-R, sequence (P16234 24-1089): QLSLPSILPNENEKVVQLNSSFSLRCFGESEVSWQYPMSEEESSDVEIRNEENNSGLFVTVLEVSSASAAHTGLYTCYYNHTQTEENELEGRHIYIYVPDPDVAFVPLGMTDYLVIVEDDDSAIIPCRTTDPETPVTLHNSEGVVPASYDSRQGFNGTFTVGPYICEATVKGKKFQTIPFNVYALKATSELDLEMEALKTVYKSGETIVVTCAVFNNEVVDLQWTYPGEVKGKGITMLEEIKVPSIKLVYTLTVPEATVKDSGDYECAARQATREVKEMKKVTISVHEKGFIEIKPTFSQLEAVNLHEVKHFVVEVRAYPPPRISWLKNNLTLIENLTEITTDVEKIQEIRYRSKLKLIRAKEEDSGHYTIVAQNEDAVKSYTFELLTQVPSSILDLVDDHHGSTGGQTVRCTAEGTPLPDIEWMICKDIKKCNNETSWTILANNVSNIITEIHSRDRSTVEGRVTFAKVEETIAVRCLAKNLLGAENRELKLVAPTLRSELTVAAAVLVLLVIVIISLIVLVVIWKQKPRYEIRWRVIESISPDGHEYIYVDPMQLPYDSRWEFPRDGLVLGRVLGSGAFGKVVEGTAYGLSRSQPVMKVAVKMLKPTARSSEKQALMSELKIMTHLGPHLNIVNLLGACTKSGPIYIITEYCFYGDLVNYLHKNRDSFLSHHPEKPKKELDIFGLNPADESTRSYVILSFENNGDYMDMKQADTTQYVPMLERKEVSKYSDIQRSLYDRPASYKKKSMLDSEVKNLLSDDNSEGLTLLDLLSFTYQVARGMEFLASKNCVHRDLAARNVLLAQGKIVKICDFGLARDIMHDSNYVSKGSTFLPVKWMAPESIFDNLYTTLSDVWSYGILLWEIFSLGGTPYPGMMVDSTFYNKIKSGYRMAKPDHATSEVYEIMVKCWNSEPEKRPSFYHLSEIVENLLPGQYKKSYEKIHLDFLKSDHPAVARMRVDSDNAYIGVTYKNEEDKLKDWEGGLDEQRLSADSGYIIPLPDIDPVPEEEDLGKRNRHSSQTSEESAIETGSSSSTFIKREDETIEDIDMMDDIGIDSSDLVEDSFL

Row | Compound | inhibition compared to the base medium (BITS) (NIH3T3-PDGF-ββ cells; 6 mM peptide) [%] | inhibition compared to the base medium (BITS) (NIH3T3-PDGF-ββ cells; 12 mM peptide) [%] | % of control cell growth (NIH3T3-PDGF-ββ cells; Table 2, 1 mM peptide) [%] | % of control cell growth (NIH3T3-PDGF-ββ cells; Table 2, 3 mM peptide) [%] | % of control cell growth (NIH3T3-PDGF-ββ cells; Table 2, 6 mM peptide) [%] | % of control cell growth (NIH3T3-PDGF-ββ cells; Table 2, 12 mM peptide) [%] | growth inhibition in the initial screen of the library (NIH3T3-PDGF-ββ cells) | further results
1 | Cc1ccc(C(=O)Nc2ccc(S(=O)(=O)O)c3cc(S(=O)(=O)O)cc(S(=O)(=O)O)c23)cc1NC(=O)c1cccc(NC(=O)Nc2cccc(C(=O)Nc3cc(C(=O)Nc4ccc(S(=O)(=O)O)c5cc(S(=O)(=O)O)cc(S(=O)(=O)O)c45)ccc3C)c2)c1 [suramin] | – | – | – | – | – | – | – | inhibition of PDGF binding to PDGF R (PDGF-R): 100%
2 | neomycin | – | – | – | – | – | – | – | inhibition of binding of PDGF-ββ to the α-type PDGF-R (α-type PDGF-R): inhibited; inhibition of binding to the PDGF β receptor (PDGF β receptor): not able to inhibit
3 | NCCCC[C@H](NC(=O)[C@H](CCCCN)NC(=O)[C@H](CCCCN)NC(=O)[C@@H](N)CCCCN)C(=O)O [KKKK] (H-KKKK-OH) | 59 | 82 | 105 | 72 | 41 | 17 | – | inhibition of cell growth compared to control medium (BITS) (NIH3T3-PDGF-ββ cells; Example 3, KKKK (Bachem) 3 mM): 21%; inhibition of cell growth compared to control medium (BITS) (NIH3T3-PDGF-ββ cells; Example 3, KKKK (Bachem) 6 mM): 36%; % of control cell growth (NIH3T3-PDGF-ββ cells; Table 1, KKKK (Bachem) 3 mM): 78%; % of control cell growth (NIH3T3-PDGF-ββ cells; Table 1, KKKK (Bachem) 6 mM): 65%; % of control cell growth (NIH3T3-PDGF-ββ cells; Table 1, KKKK (Bachem) 12 mM): 39%
4 | KLMSY (printed: LYS LEU MET SER TYR) [pentapeptide LYS LEU MET SER TYR, from Bachem] | 23 | 91 | 127 | 126 | 76 | 10 | inhibiting growth | –
5 | FFFKK (printed: PHE PHE PHE LYS LYS) [pentapeptide PHE PHE PHE LYS LYS, from Bachem] | 29 | 82 | 111 | 103 | 69 | 18 | inhibiting growth | –
6 | DDEEK (printed: ASP ASP GLU GLU LYS) [pentapeptide ASP ASP GLU GLU LYS, from Bachem] | 91 | 84 | 108 | 93 | 11 | 16 | inhibiting growth | relative potency in inhibiting cell growth (NIH3T3-PDGF-ββ cells; 6 mM): most potent inhibitor
7 | FFHPV (printed: PHE PHE HIS PRO VAL) [pentapeptide PHE PHE HIS PRO VAL, from Bachem] | 14 | – | 116 | 111 | 85 | – | inhibiting growth | inhibition compared to the base medium (BITS) (NIH3T3-PDGF-ββ cells; 9.5 mM peptide): 82%; % of control cell growth (NIH3T3-PDGF-ββ cells; Table 2, 9.5 mM peptide): 16%
